Converted amounts (≈) assume the structure as drawn.
How the values were obtained:
KB = experiment: Cytotoxicity against human KB cells; type: functional, cell-based
[1] = Cytotoxicity against breast cancer cells; type: functional, cell-based; conditions: Cancer cell lines
[2] = test system: Mycobacterium tuberculosis; experiment: Antitubercular activity against Mycobacterium tuberculosis H37Ra; type: functional

| SMILES | IC50 (KB) [nM] | IC50 [1] [nM] | MIC [2] [µM] |
| --- | --- | --- | --- |
| COc1cc2c(cc1O)CCN[C@]21C[S+]([O-])[C@@H]2c3c(OC(C)=O)c(C)c4c(c3[C@H](COC1=O)N1[C@@H]2[C@@H]2c3c(cc(C)c(OC)c3O)C[C@@H]([C@@H]1C#N)N2C)OCO4 (stereo partly specified) [ECTEINASCIDIN 786] | 0.15 | 7.6 | 2 (≈ 1.57 µg/mL) |
| COc1cc2c(cc1O)CCN[C@]21CS[C@@H]2c3c(OC(C)=O)c(C)c4c(c3[C@H](COC1=O)N1[C@@H]2[C@H]2c3c(cc(C)c(OC)c3O)C[C@@H]([C@@H]1C#N)N2C)OCO4 [ECTEINASCIDIN 770] | 0.034 | 2.5 | 0.13 (≈ 0.1 µg/mL) |

From ChEMBL document CHEMBL1150603, “Ecteinascidins 770 and 786 from the Thai tunicate Ecteinascidia thurstoni” (J Nat Prod, 2002)
